Data from patent publication US7642059B2, “Single receptor assays for immunosuppressive drugs” (Roche Diagnostics Operations, Inc., priority 2005, dated 2010).

Tests used:
[1] = target: T1, FKBP25 (Homo sapiens, UniProt Q00688); conditions: FKBP25, rotamase assay; cited from earlier work
T1 sequence (Q00688 1-224): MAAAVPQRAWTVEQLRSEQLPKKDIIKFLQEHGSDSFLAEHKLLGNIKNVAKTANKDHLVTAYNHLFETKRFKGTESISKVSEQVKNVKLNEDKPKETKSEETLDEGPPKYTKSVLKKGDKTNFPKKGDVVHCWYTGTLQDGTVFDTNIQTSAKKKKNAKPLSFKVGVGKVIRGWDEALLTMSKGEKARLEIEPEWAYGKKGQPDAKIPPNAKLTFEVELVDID

[2] = target: FKBP14; conditions: cited from earlier work
[3] = target: T1, FKBP25; experiment: FKBP25 microparticle / rapamycin-aminodextran agglutination assay (cross-reactivity); format: binding
Method: A first working reagent (R1 reagent) was prepared by making 175 mM PIPES buffer, pH 7.4. To this was added rapamycin-aminodextran conjugate to give a concentration of 400 ng/mL. To this was also added polyacrylic acid to give a concentration of 1.3%.
A second working reagent (R2 reagent) was prepared as described in Example 12 and used at final concentration of 0.14% (w/v) in 50 mM MOPS buffer at pH 7.9.
A stock solution of rapamycin was made (100 μg/mL) in DMSO. Calibrators were prepared from the stock by making solution of 50, 100 and 200 ng/mL of rapamycin in 0.9% saline solution.
An assay was performed using a Hitachi 917 automated analyzer (Roche Diagnostics Corporation, Indianapolis) using a 35 μL sample volume, 180 μL of the first working reagent and 80 μL of the second working reagent (measured OD at 800 nm).
Known quantities of tacrolimus were then assayed as above. By comparing the observed reading from the rapamycin curve obtained to the actual amount of tacrolimus in the samples assayed, tacrolimus cross-reactivity was determined to be 7% in this assay. That is, a sample containing 1000 ng/ml tacrolimus gave a reading from the curve of 70 ng/ml rapamycin. Cross-reactivity is thus (70/1000)×100%=7%.

SMILES | Ki [1] | Kd [2] | fold lower Kd for tacrolimus than sirolimus [2] | cross-reactivity ([3]; read from rapamycin curve, Hitachi 917, OD at 800 nm) | reading from the curve as rapamycin ([3]; sample containing 1000 ng/ml tacrolimus)
C=CC[C@@H]1/C=C(\C)C[C@H](C)C[C@H](OC)[C@H]2O[C@@](O)(C(=O)C(=O)N3CCCC[C@H]3C(=O)O[C@H](/C(C)=C/[C@@H]3CC[C@@H](O)[C@H](OC)C3)[C@H](C)[C@@H](O)CC1=O)[C@H](C)C[C@@H]2OC [tacrolimus] | 200 nM | 1.8 nM | about 20 fold | 7% | 70 ng/mL
CO[C@H]1C[C@@H]2CC[C@@H](C)[C@@](O)(O2)C(=O)C(=O)N2CCCC[C@H]2C(=O)O[C@H]([C@H](C)C[C@@H]2CC[C@@H](O)[C@H](OC)C2)CC(=O)[C@H](C)/C=C(\C)[C@@H](O)[C@@H](OC)C(=O)[C@H](C)C[C@H](C)/C=C/C=C/C=C/1C [rapamycin] | 0.9 nM |  |  |  | 
